This is an account of results in patent publication US20210009551A1, “COMPOUNDS AND METHODS FOR TREATING FIBROSIS OR CANCER” (THE REGENTS OF THE UNIVERSITY OF CALIFORNIA, priority 2016, published 2021).

For series [1], the target named is T1, human LOXL2 (Homo sapiens, UniProt Q9Y4K0).
T1 sequence (Q9Y4K0 26-774): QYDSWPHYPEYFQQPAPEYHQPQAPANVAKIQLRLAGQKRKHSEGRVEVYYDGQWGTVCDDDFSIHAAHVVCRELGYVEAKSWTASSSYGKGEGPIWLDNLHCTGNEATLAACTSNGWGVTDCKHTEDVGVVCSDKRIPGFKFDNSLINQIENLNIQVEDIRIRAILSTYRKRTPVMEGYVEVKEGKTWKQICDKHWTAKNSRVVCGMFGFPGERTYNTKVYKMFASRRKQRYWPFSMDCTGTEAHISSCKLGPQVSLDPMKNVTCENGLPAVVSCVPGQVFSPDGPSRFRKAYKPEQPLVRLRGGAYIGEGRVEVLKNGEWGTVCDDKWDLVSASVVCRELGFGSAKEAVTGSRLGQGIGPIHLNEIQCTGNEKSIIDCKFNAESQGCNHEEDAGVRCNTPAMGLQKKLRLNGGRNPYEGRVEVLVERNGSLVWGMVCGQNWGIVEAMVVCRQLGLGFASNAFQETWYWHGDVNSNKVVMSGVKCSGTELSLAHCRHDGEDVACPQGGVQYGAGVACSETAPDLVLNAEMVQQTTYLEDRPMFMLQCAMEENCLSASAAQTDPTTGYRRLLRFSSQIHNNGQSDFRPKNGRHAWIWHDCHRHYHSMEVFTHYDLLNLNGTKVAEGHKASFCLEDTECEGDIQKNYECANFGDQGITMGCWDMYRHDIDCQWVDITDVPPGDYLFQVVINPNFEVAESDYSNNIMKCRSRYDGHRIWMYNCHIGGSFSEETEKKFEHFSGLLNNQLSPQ
Put plainly: LOXL2-induced stabilization of snail 1 protein in NMuMG cells. In kind it is cell-based. Details: Flag (C); expressed in transfected cells; host or cells: NMuMG cells. Particulars: 0.5 μM, 24 h. As to the method: (§1) Immunoblot. Pulverized tissue and cells were lysed in RIP A buffer (150 mM NaCl, 50 mM Tris, pH 8.0, 1% Triton X-100, 0.5% sodium deoxycholate, 0.1% SDS, supplemented with protease and phosphatase inhibitors) and analyzed by immunoblotting. Densitometry was quantified using NIH Imaged software.

In series [2] the test system is C57BL/6 mice, intratracheal bleomycin. The experiment in a line: Bleomycin fibrosis model. The format is in vivo. Particulars: daily gavage 100 mg/kg from day 10 after bleomycin, day 21.
Method: For histological assessment of lung collagen, frozen sections of the left lung were stained using Masson's Trichrome stain kit (American MasterTech, Lodi, Calif., USA).
Bleomycin fibrosis model. Eight-week old C57BL/6 mice were intratracheally instilled with saline or 1.9 units/kg of bleomycin (Sigma-Aldrich). Mice were implanted with osmotic pumps loaded with ellagic acid salt (24 mg/kg/day, Day 10-Day 17), fed with red raspberry diet (Day 0-Day 21), or gavaged with corilagin (100 mg/kg, Day 10-Day 21). Controls were treated with control pump, control diet, or vehicle in the same formulation. The lungs were lavaged and followed by OCT embedding for imaging or snap freezing in liquid nitrogen for protein extraction or hydroxyproline assay.
Collagen content Lung or aorta collagen content was evaluated using hydroxyproline assay. Briefly, whole left lung tissue or aorta was hydrolyzed in 1 ml 12N HCl at 110° C. for 24 h and the hydroxyproline was detected by incubating with Chloramine T and p-dimethylaminobenzaldehyde and the absorbance was measured at 550 nm. Each sample was run in triplicate. Collagen content in lung or aorta tissues was expressed as micrograms of collagen per lung or aorta and was converted from micrograms of hydroxyproline.
The test system of series [3] is TGFβ1-induced epithelial-mesenchymal transition (EMT) in A549 adenocarcinoma cells. The experiment in a line: TGFβ1-induced EMT in A549 cells (image-based screen, immunoblot). The format is cell-based. As to the method:
High throughput screen and high content imaging analysis. A549 cell-based screening of inhibitors to TGFβ1-induced EMT from a bioactive small molecule library was performed in 384-well plate format and the images were captured and analyzed using GE IN Cell 2000 as described previously^16.
as §1
(In western blotting, separated proteins are transferred to a membrane and probed.)

The nature of series [4]: Plasma level of corilagin, LC/MS analysis. The format is in vivo, mice. Particulars: C57BL/6, mouse, 2 hrs after the last oral dose of 100 mg/kg, day 21, read-out: average circulating level. On the procedure: Plasma level of corilagin—LC/MS analysis. Corilagin in C57BL/6 mice two hours following last oral administration at day 21 was analyzed. Blood samples (˜500 μL/sample) were collected via cardiac puncture. Samples were placed in tubes containing heparin sodium and stored on ice until centrifuged for plasma.

In series [5] the target is T1, human LOXL2. Put plainly: Collagen crosslinking induced by recombinant LOXL2 in lung fibroblasts (Sircol assay). The format is cell-based. Particulars: primary human lung fibroblasts, 7 days. On the procedure: Preparation of insoluble cross-linked collagen. Fibroblasts were cultured on 10 cm dish until confluent. The medium was then changed to Dulbecco's modified Eagle's medium (DMEM) containing 5% FBS, 100 μM L-ascorbic acid with 500 kDa Dextran Sulfate at 100 μg/ml, and 50 ng/ml recombinant human LOXL2 (rhLOXL2) for 7 days^21,22. The cell layer was extracted with 0.5 M acetic acid and 0.1 mg/ml pepsin overnight at 4° C. The leftover insoluble fraction was further extracted and the insoluble cross-linked collagen measured using Sircol Insoluble Collagen Assay kit according to manufacture's instruction.

One may read the IC50 as the concentration that gives 50% inhibition. In the case of `O=C(O[C@@H]1O[C@@H]2COC(=O)c3cc(O)c(O)c(O)c3-c3c(cc(O)c(O)c3O)C(=O)O[C@H]([C@H]1O)[C@@H]2O)c1cc(O)c(O)c(O)c1` [corilagin, Corilagin], on human LOXL2 [1], the “LOXL2-induced stabilization of snail 1 protein” value is recorded as “blocked”. The “bleomycin-induced total lung collagen, fibronectin, snail 1, and p-smad3” value in series [2] was “marked attenuation”. Moreover, the IC50 in series [3] (Homo sapiens, A549 cells stimulated with TGFβ1, 48 h) amounted to 50 nM; at human LOXL2 [5], 10 nM. Further, the “inhibitory effects on EMT after knockdown of LOXL2” value in series [3] (LOXL2 RNAi, A549 cells, 1 μM) is “completely abrogated”. The concentration at 2 h in series [4] was found to be 80 nM.
